Laboratory results published in article PMC7696671, “P2Y2 and P2X4 Receptors Mediate Ca^2+ Mobilization in DH82 Canine Macrophage Cells” (International Journal of Molecular Sciences, 2020).

Experiments:
Format in all cases: cell-based
P2Y2 receptor [1] = target: T1, P2Y2 receptor (Canis lupus, UniProt A0A8I3MZ62); assay: Fura-2 Ca2+ assay in DH82 cells, inhibition of the response to […] UTP (peak)
T1 construct: gene P2RY2; endogenous receptor in DH82 canine macrophage cells

P2Y2 receptor [2] = target: T1, P2Y2 receptor; assay: Fura-2 Ca2+ assay in DH82 cells, agonist peak response; blocked by AR-C118925 in Ca2+-free solution
P2Y2 receptor [3] = target: T1, P2Y2 receptor; assay: Fura-2 Ca2+ assay in DH82 cells, agonist peak response

T1 sequence (A0A8I3MZ62 1-377): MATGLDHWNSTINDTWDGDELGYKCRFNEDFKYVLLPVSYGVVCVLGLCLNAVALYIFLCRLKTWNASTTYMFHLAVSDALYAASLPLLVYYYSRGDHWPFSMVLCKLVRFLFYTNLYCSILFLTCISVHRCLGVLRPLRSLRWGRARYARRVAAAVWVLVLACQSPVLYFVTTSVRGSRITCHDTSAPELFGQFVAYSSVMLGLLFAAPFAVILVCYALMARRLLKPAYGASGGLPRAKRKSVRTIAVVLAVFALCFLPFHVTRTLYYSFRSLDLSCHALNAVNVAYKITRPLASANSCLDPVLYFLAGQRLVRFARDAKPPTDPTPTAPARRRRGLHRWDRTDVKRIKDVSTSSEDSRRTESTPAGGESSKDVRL

IC50 (P2Y2 receptor [1]) [pIC50] | SMILES | also measured
6.61 ± 0.09 | Cc1ccc2c(c1)C=Cc1cc(C)ccc1C2c1cn(Cc2ccc(C(=O)Nc3nn[nH]n3)o2)c(=O)[nH]c1=S [AR-C118925] | 
 | Nc1ncnc2c1ncn2[C@@H]1O[C@H](COP(=O)(O)OP(=O)(O)OP(=O)(O)O)[C@@H](O)[C@H]1O [ATP] | Peak Ca^2+ Response / pEC50 (P2Y2 receptor [2]): 5.88 ± 0.05 pEC50
 | O=c1ccn([C@@H]2O[C@H](CO[P@@](=O)(O)O[P@@](=O)(O)OP(=O)(O)O)[C@@H](O)[C@H]2O)c(=O)[nH]1 [UTP] | Peak Ca^2+ Response / pEC50 (P2Y2 receptor [3]): 6.16 ± 0.09 pEC50
3.70 ± 0.05 | Cc1ccc(C(=O)Nc2ccc(S(=O)(=O)O)c3cc(S(=O)(=O)O)cc(S(=O)(=O)O)c23)cc1NC(=O)c1cccc(NC(=O)Nc2cccc(C(=O)Nc3cc(C(=O)Nc4ccc(S(=O)(=O)O)c5cc(S(=O)(=O)O)cc(S(=O)(=O)O)c45)ccc3C)c2)c1 [suramin] | 
